This is an account of results in publication PMC9091350, “Sodium Tanshinone IIA Sulfonate as a Potent IDO1/TDO2 Dual Inhibitor Enhances Anti-PD1 Therapy for Colorectal Cancer in Mice” (Frontiers in Pharmacology, 2022).

What all share (assay type): biochemical
The target in assay [1] is T1, tryptophan 2,3-dioxygenase 2 (TDO2) (Homo sapiens, UniProt P48775). The assay can be described thus: purified recombinant enzyme assay, kynurenine absorbance at […] nm; also kynurenine reduction in TDO2-293T cells.
T1 sequence (P48775 whole entry): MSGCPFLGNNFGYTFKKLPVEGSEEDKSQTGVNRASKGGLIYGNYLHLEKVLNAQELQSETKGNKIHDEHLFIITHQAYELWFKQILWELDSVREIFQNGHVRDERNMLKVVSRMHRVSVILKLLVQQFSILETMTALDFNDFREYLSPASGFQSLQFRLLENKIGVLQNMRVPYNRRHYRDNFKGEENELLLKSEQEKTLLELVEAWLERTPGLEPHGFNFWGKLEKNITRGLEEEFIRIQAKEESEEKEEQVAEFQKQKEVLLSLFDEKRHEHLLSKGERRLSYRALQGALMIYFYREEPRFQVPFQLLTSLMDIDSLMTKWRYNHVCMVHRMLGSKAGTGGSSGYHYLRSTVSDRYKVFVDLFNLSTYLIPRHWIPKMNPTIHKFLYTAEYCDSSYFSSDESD
For assay [2], the target named is T2, indoleamine 2,3-dioxygenase 1 (IDO1) (Homo sapiens, UniProt P14902).
T2 construct: full-length, N-terminal His-AK tag (His-AK-IDO1)
T2 sequence (P14902 whole entry): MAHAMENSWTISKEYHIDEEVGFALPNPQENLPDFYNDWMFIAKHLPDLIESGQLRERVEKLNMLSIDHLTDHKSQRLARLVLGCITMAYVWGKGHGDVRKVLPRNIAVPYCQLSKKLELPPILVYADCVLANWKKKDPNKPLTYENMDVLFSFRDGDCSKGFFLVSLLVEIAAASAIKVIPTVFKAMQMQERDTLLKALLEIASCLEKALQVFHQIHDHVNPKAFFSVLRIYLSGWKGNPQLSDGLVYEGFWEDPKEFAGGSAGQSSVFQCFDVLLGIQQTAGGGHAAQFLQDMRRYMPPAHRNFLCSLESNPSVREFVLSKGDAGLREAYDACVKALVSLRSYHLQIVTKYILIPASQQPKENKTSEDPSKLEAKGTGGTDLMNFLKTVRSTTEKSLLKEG
Nature of the assay: purified recombinant enzyme assay, kynurenine absorbance at […] nm; also kynurenine reduction in IDO1-293T cells.

Assay [3] concerns the target T1, tryptophan 2,3-dioxygenase 2 (TDO2). The assay can be described thus: purified recombinant enzyme assay, kynurenine absorbance at […] nm.
The target in assay [4] is T2, indoleamine 2,3-dioxygenase 1 (IDO1). The assay can be described thus: purified recombinant enzyme inhibitor screen (compounds at […]), kynurenine absorbance at […] nm.

Turning to `Cc1c(S(=O)(=O)O)oc2c1C(=O)C(=O)c1c-2ccc2c1CCCC2(C)C` [STS, Sodium tanshinone IIA sulfonate], the IC50 in assay [1] and in assay [2] was less than 10 µM each time.
Consider `Cc1coc2c1C(=O)C(=O)c1c-2ccc2c1CCCC2(C)C` [TSN, tanshinone IIA], for which the “purified recombinant enzyme assay, kynurenine absorbance at 490 nm” value in assay [3] is listed as “TSN only reduced the activity of TDO2 but not IDO1 (Figure 1C)”.
As to `COc1c(O)cc2oc3cc(O)c(CC=C(C)C)c(O)c3c(=O)c2c1CC=C(C)C` [mangostin], the “purified recombinant enzyme inhibitor screen (compounds at 10 μM), kynurenine ab” value in assay [4] was “several compounds, including mangostin and androstenedione, could inhibit the activity of IDO1 (Supplementary Figures S1A,B)”.
